Test results taken from article PMC11707430, “Novel antibiotics against Staphylococcus aureus without detectable resistance by targeting proton motive force and FtsH” (MedComm, 2025).

How the values were obtained:
S. aureus ATCC 43300 [1] = assay: Consecutive resistance inducing assay; type: cell-based; details: sub-MIC (1/2×MIC), after 20 days of treatment
Method: Resistance inducing assay. Consecutive and one-step resistance experiments were performed to assess the resistance-inducing ability of the compounds against S. aureus. For consecutive resistance assay, the MICs of compounds and ciprofloxacin (CIP) were determined on the first day. […] […] […] And the antimicrobial activity of the compounds against the CIP-induced strains were assessed by microdilution assay as described above. For one-step resistance assay, overnight cultured S. aureus was adjusted to a final concentration of approximately OD630=0.5 with sterile saline. One hundred microliters of the bacterial suspension were uniformly spread in pre-prepared MH agar plates containing a specific concentration of compounds. Rifampicin (RFP) was used as a positive control. The viable cells were counted on the plates after incubation at 37°C for 48h. The frequency of spontaneous drug resistance mutation was defined as the ratio of the number of resistant CFU counts to the initial CFU counts^3.

S. aureus biofilm = assay: Biofilm determination by crystal violet staining; type: cell-based
Method: Biofilm determination by crystal violet staining. The biofilm was formed as described above. The planktonic (non-adherent) bacteria were removed by washing the wells with PBS. Added a solution of 0.15% (wt/vol) crystal violet to each well and incubated for 15 min at room temperature. Then, the plates were gently wash with PBS to remove excess crystal violet. One hundred microliters of ethanol were added to each well to solubilize the crystal violet that has bound to the biofilm. The absorbance at 570nm (A570nm) of the solubilized crystal violet was measured with a microplate reader^6.
Biofilm determination by XTT assay. To determine the biofilm inhibition, overnight cultures of S. aureus were diluted with TSB containing 2-fold diluted antimicrobials at the ratio of 1: 100 and added to a 96-well plate. After incubation statically at 37 ℃ for 24h, the supernatant was carefully removed and washed with PBS. (2,3-Bis-(2-methoxy-4-nitro-5-sulfophenyl)-2H-tetrazolium-5-carboxanilide) (XTT, 0.2 mg/ml) and Phenazin (methylsufate) (PMS, 0.02 mg/ml) were mixed with 1× PBS and added to each well of the 96-well plate (100 μL/well). The plate was then incubated for 3h in the dark, and the absorbance was measured at 490 nm (A490nm). For biofilm eradication, overnight cultures of S. aureus were diluted with fresh TSB at 1:100 and incubated for 24h to pre-form biofilms. […]

WP2uvrA (pKM101) = assay: Ames test; type: cell-based, E. coli
Method: Ames test. Genotoxicity of the compounds was determined by Ames Kit (IPHASE, Beijing, China) containing Salmonella typhimurium (TA97a, TA98, TA100, and TA1535) and E. coli WP2 uvrA (pKM101). Diclofenac and 2-aminofluorene were used as positive controls for TA97a and TA98. Methyl methanesulfonate and 2-aminofluorene were used as positive controls for TA100. Methyl methanesulfonate and 2-aminoanthracene were used as positive controls for WP2 uvrA (pKM101). NaN3 and 2-aminoanthracene were used as positive controls for TA1535. The bottom and top layer culture medium, and S9 mixed solution were prepared according to the manufacturer’s instructions. After incubation at 37℃ for 48h, the colonies were counted.

S. aureus ATCC 43300 [2] = assay: S. aureus-related abscess model; type: in vivo, ICR mice; details: STK848198 combined with AMP, s.c.
Method: S. aureus-related abscess model. Six to seven-week-old female, specific pathogen free outbred ICR mice were anesthetized with 1% sodium pentobarbital (50 mg/kg). The back hair was shaved with an electric razor. A 50 μL of S. aureus ATCC 43300 suspension containing 1× 10^8 CFU/ml cells was subcutaneously injected (s.c.) into the back of the mice. The mice were randomized into four groups (N = 5-6 mice per group): (1) Vehicle group, (2) C218-0546 (30 mg/kg) or STK848198 (30 mg/kg) treatment group, (3) Amikacin (25 mg/kg) treatment group, (4) C218-0546 ([…]) treatment group. Each group was administrated by s.c. after 1h post infection. The mice were sacrificed at 24h post infection, and their lesions were removed and homogenized for viable bacterial cells counting. Meanwhile, the lesions were dislocated and immersed in 4% paraformaldehyde for hematoxylin-eosin (H&E) staining, Giemsa staining and immunohistochemical analysis, respectively^22.

[3] = In vivo toxicity analysis; design: species or system ICR mice; details: acute, i.p. 30 mg/kg, 24 h
Method: In vivo toxicity analysis. For acute in vivo toxicity determination, specific ICR female mice (N = 6 per group) were randomly divided into 3 groups. The mice were intraperitoneally injected with EL+ ethanol (vehicle group), or 30 mg/kg of […]=0546 or STK848198. Twenty-four hours post-administration, blood samples were collected from the ophthalmic venous plexus and the hematological parameters of white blood cell count (WBC), neutrophil ratio (N%), red blood cell count (RBC), hemoglobin levels (HGH), and platelet count (PLT) were measured. Meanwhile, serum samples were also collected by centrifuged at 4000 rpm for 10 min. And the biomarkers of alanine aminotransferase (ALT), urea nitrogen (BUN), and creatine kinase (CK) for liver, kidney and heart function monitoring, respectively, were also analyzed. Then, the mice were euthanized, and the organs of heart, liver, spleen, lungs and kidneys were removed and fixed in 4% neutral paraformaldehyde for Hematoxylin and eosin (H&E) staining. In addition, for 7-day in vivo toxicity detection, specific ICR female mice (N=5 per group) were intraperitoneally injected with 30 mg/kg of […]=0546 or STK848198 every day for a total of 7 days. The body weight was monitored, and the blood samples and organs were also collected and analyzed as described above^43.

Cc1nc2c(-c3ccc(Cl)cc3)cnn2c(O)c1Cc1ccccc1 [STK848198]
MIC increasement after sub-MIC treatment (S. aureus ATCC 43300 [1]): 0 fold | concentration inhibiting biofilm biomass formation (S. aureus biofilm; biofilm inhibition): 0.25 µg/mL | concentration eradicating preformed biofilm biomass (S. aureus biofilm; preformed biofilm): 2 µg/mL | CFU(x±SD) (WP2uvrA (pKM101); +S9, 25 μg/well): 29 ±4 CFU | Fold Change (WP2uvrA (pKM101); +S9, 25 μg/well): 0.9 | CFU(x±SD) (WP2uvrA (pKM101); +S9, 50 μg/well): 26 ±4 CFU | Fold Change (WP2uvrA (pKM101); +S9, 50 μg/well): 0.8 | CFU(x±SD) (WP2uvrA (pKM101); +S9, 100 μg/well): 26 ±3 CFU | Fold Change (WP2uvrA (pKM101); +S9, 100 μg/well): 0.8 | CFU(x±SD) (WP2uvrA (pKM101); +S9, 200 μg/well): 29 ±3 CFU | Fold Change (WP2uvrA (pKM101); +S9, 200 μg/well): 0.9 | CFU(x±SD) (WP2uvrA (pKM101); +S9, 400 μg/well): 28 ±3 CFU | Fold Change (WP2uvrA (pKM101); +S9, 400 μg/well): 0.9 | CFU(x±SD) (WP2uvrA (pKM101); -S9, 25 μg/well): 22±2 CFU | Fold Change (WP2uvrA (pKM101); -S9, 25 μg/well): 1 | CFU(x±SD) (WP2uvrA (pKM101); -S9, 50 μg/well): 23±4 CFU | Fold Change (WP2uvrA (pKM101); -S9, 50 μg/well): 1 | CFU(x±SD) (WP2uvrA (pKM101); -S9, 100 μg/well): 21±1 CFU | Fold Change (WP2uvrA (pKM101); -S9, 100 μg/well): 0.9 | CFU(x±SD) (WP2uvrA (pKM101); -S9, 200 μg/well): 24±3 CFU | Fold Change (WP2uvrA (pKM101); -S9, 200 μg/well): 1 | CFU(x±SD) (WP2uvrA (pKM101); -S9, 400 μg/well): 23±1 CFU | Fold Change (WP2uvrA (pKM101); -S9, 400 μg/well): 1 | in vivo synergy, viable cell counts in abscess (S. aureus ATCC 43300 [2]): exhibited synergy | erythrocyte, leukocyte, platelet parameters, ALT, BUN, CK vs vehicle [3]: No significant difference
